Values of other authors in patent US9795715B2, “Bone tissue engineering by ex vivo stem cells ongrowth into three-dimensional trabecular metal” (Zimmer Trabecular Metal Technology, Inc., priority 2004, dated 2017).

Test system: porcine embryos
Settings: 0.5 mg/mL

## hyaluronan
  development of porcine embryos in culture: increase the development of porcine embryos
